Counter-ions that a name gives are not always drawn. Like-named read-outs stand apart in the source and are kept apart here.
Key:
[1] = Ambient-temperature stability of PAPS lithium salt in aqueous solution or in the form of powder (HPLC determination of PAPS)
Description: ODS-[…] column (product of YMC) • Eluent: 50 mM Aqueous potassium dihydrogenphosphate solution • Flow rate: 0.6 mL/minute • Detection: Absorbance (A) at 270 nm • Temperature: 20° C. The present invention will next be specifically described in detail with reference to Referential Example and Example. However, it will be understood that the present invention is not limited to the Example. Quantitative determination of PAPS was performed under the aforementioned HPLC conditions. Ambient-temperature stability of a PAPS lithium salt (product of Calbiochem) was evaluated in an aqueous solution or in the form of powder as follows. […] As used herein, “percent undecomposed” or “percentage of undecomposed PAPS” is the ratio of the remaining amount of PAPS to the initial amount thereof.

[2] = powder 10 mg, desiccator (relative humidity: 10%), ambient temperature (23±2° C.), seven days

Compound	Undecomposed PAPS (%) [2]	Undecomposed PAPS (%)	also measured
Nc1ncnc2c1ncn2[C@@H]1O[C@H](COP(=O)(O)OS(=O)(=O)O)[C@@H](OP(=O)(O)O)[C@H]1O [L-Histidine salt, 3′-phosphoadenosine 5′-phosphosulfate]	98%		
Nc1ncnc2c1ncn2[C@@H]1O[C@H](COP(=O)(O)OS(=O)(=O)O)[C@@H](OP(=O)(O)O)[C@H]1O [Ammonium salt, 3′-phosphoadenosine 5′-phosphosulfate]	4.1%		
Nc1ncnc2c1ncn2[C@@H]1O[C@H](COP(=O)(O)OS(=O)(=O)O)[C@@H](OP(=O)(O)O)[C@H]1O [Ethanolamine salt, 3′-phosphoadenosine 5′-phosphosulfate]	13%		
Nc1ncnc2c1ncn2[C@@H]1O[C@H](COP(=O)(O)OS(=O)(=O)O)[C@@H](OP(=O)(O)O)[C@H]1O [Triethylamine salt, 3′-phosphoadenosine 5′-phosphosulfate]	100%		
Nc1ncnc2c1ncn2[C@@H]1O[C@H](COP(=O)(O)OS(=O)(=O)O)[C@@H](OP(=O)(O)O)[C@H]1O [Imidazole salt, 3′-phosphoadenosine 5′-phosphosulfate]	2.9%		
Nc1ncnc2c1ncn2[C@@H]1O[C@H](COP(=O)(O)OS(=O)(=O)O)[C@@H](OP(=O)(O)O)[C@H]1O [L-Arginine salt, 3′-phosphoadenosine 5′-phosphosulfate]		57%	
Nc1ncnc2c1ncn2[C@@H]1O[C@H](COP(=O)(O)OS(=O)(=O)O)[C@@H](OP(=O)(O)O)[C@H]1O [Lithium salt, 3′-phosphoadenosine 5′-phosphosulfate]	65%		Undecomposed of PAPS (%) ([1]; aqueous solution 10 mg/mL, standing still at 4° C. for seven days): >99%; Undecomposed of PAPS (%) ([1]; aqueous solution 10 mg/mL, standing still at 23° C. for seven days): 96%; stability in aqueous solution (in words) ([1]; aqueous solution, seven days): relatively stable; Undecomposed of PAPS (%) ([1]; powder (10 mg), standing still at 4° C. for seven days): 89%; Undecomposed of PAPS (%) ([1]; powder (10 mg), standing still at 23° C. for seven days): 65%; decomposed (%) ([1]; powder, ambient temperature, seven days): 35%; stability in the form of powder (in words) ([1]; powder, seven days): very unstable
Nc1ncnc2c1ncn2[C@@H]1O[C@H](COP(=O)(O)OS(=O)(=O)O)[C@@H](OP(=O)(O)O)[C@H]1O [L-Lysine salt, 3′-phosphoadenosine 5′-phosphosulfate]		27%	
Nc1ncnc2c1ncn2[C@@H]1O[C@H](COP(=O)(O)OS(=O)(=O)O)[C@@H](OP(=O)(O)O)[C@H]1O [Polyethyleneimine salt, 3′-phosphoadenosine 5′-phosphosulfate]	94%		
Nc1ncnc2c1ncn2[C@@H]1O[C@H](COP(=O)(O)OS(=O)(=O)O)[C@@H](OP(=O)(O)O)[C@H]1O [Piperidine salt, 3′-phosphoadenosine 5′-phosphosulfate]		92%	
Nc1ncnc2c1ncn2[C@@H]1O[C@H](COP(=O)(O)OS(=O)(=O)O)[C@@H](OP(=O)(O)O)[C@H]1O [Ethylamine salt, 3′-phosphoadenosine 5′-phosphosulfate]		48%	
Nc1ncnc2c1ncn2[C@@H]1O[C@H](COP(=O)(O)OS(=O)(=O)O)[C@@H](OP(=O)(O)O)[C@H]1O [Sodium salt, 3′-phosphoadenosine 5′-phosphosulfate]	64%		
Nc1ncnc2c1ncn2[C@@H]1O[C@H](COP(=O)(O)OS(=O)(=O)O)[C@@H](OP(=O)(O)O)[C@H]1O [Putrescine salt, 3′-phosphoadenosine 5′-phosphosulfate]	80%		
Nc1ncnc2c1ncn2[C@@H]1O[C@H](COP(=O)(O)OS(=O)(=O)O)[C@@H](OP(=O)(O)O)[C@H]1O [Trimethylamine salt, 3′-phosphoadenosine 5′-phosphosulfate]		89%	
Nc1ncnc2c1ncn2[C@@H]1O[C@H](COP(=O)(O)OS(=O)(=O)O)[C@@H](OP(=O)(O)O)[C@H]1O [Potassium salt, 3′-phosphoadenosine 5′-phosphosulfate]	22%		
Nc1ncnc2c1ncn2[C@@H]1O[C@H](COP(=O)(O)OS(=O)(=O)O)[C@@H](OP(=O)(O)O)[C@H]1O [Diethylamine salt, 3′-phosphoadenosine 5′-phosphosulfate]	96%		
